Data as given in patent US5399587A, “Biologically active compounds” (priority 1993, dated 1995).
Several values for one entry are separate records, joined by “and”; a condition that tells them apart may be missing. Equal entries are not always repeated.

Experiments:
[1] = biological target: T1, bovine aortic sarcolemma membrane vesicles ([^125 I]ChTX binding) (Bos taurus, UniProt Q28204); experiment: [^125 I]ChTX (Charybdotoxin) binding to bovine aortic sarcolemma membrane vesicles
T1 construct: bovine aortic sarcolemma membrane vesicles; from tissue; host or cells: bovine aorta (smooth muscle) sarcolemma membrane vesicles
Procedure: The interaction of [^125 I]ChTX (Charybdotoxin) with bovine aortic sarcolemma membrane vesicles was determined under conditions as described in Vazquez et al., 1989, J. Biol. Chem. 264, 20902-20909. Briefly, sarcolemma membrane vesicles were incubated in 12×75 polystyrene robes with ca. 25 pM [^125 I]ChTX (2200 Ci/mmol), in the absence or presence of test compound, in a media consisting of 20 mM NaCl, 20 mM Tris-HCl pH 7.4, 0.1% bovine serum albumin, 0.1% digitonin. Nonspecific binding was determined in the presence of 10 nM ChTX. Incubations were carried out at room temperature until ligand binding equilibrium is achieved at ca. 90 min. At the end of the incubation period, samples were diluted with 4 mL ice-cold 100 mM NaCl, 20 mM Hepes-Tris pH 7.4 and filtered through GF/C glass fiber filters that have been presoaked in 0.5% polyethylenimine. Filters were rinsed twice with 4 mL ice-cold quench solution. Radioactivity associated with filters was determined in a gamma counter. Specific binding data in the presence of each compound (difference between total binding and nonspecific binding) was assessed relative to an untreated control.

[2] = biological target: large-conductance calcium-activated potassium (maxi-K) channels (Bos taurus, UniProt Q28204); experiment: Patch clamp recordings of maxi-K channel currents in excised inside-out membrane patches from cultured bovine aortic smooth muscle cells; type: biochemical; conditions: 10 μM
Procedure: Pipettes were typically filled with solutions containing (mM): 150 KCl, 10 Hepes (4-(2-hydroxyethyl)-1-piperazineethanesulfonic acid), 1 Mg, 0.01 Ca, and adjusted to pH 7.20 with 3.7 mM KOH. After forming a high resistance (>10^9 ohms) seal between the sarcolemmal membrane and the pipette, the pipette was withdrawn from the cell forming an excised inside-out membrane patch. […] An Axopatch 1C amplifier (Axon Instruments, Foster City, Calif.) with a CV-4 headstage was used to control the voltage and to measure the currents flowing across the membrane patch. The input to the headstage was connected to the pipette solution with a Ag/AgCl wire, and the amplifier ground was connected to the bath solution with a Ag/AgCl wire covered with a robe filled with agar dissolved in 0.2M KCl. Maxi-K channels were identified by their large single channel conductance (~250 pS) and sensitivity of channel open probability to membrane potential and intracellular calcium concentration.
Data was stored on a RACAL STORE 4DS FM tape recorder (Racal Recorders, Vienna, Va.) or on digital video tape using a video casette recorder after digitizing the signal with VR-10 (Instrutech Corp., Belmont N.Y.) PCM video encoder. The signal was also recorded on chart paper with a GOULD 2400S chart recorder (Gould Inc., Cleveland Ohio). For quantitative analysis, the data was played into a DEC 11-73 (Digital Equipment Corp., Maynard, Mass.) after digitization with a DT2782-8D1A analogue to digital converter (Data Translation Inc., Marlboro, Mass.), or played into a MAC IIx or QUADRA 700 computer (Apple Computers) after digitization with an ITC-16 interface (Instrutech Corp., Belmont, N.Y.).

maxi-K channels = experiment: Maxi-K channel recordings in planar lipid bilayers with plasma membrane vesicles from bovine aortic smooth muscle; type: biochemical; conditions: 10 μM, lipid bilayer
Procedure: Planar lipid bilayers were formed from a solution of 1-palmitoyl-2-oleoylphosphatidylethanolamine (POPE) and 1-palmitoyloleoylphosphatidylcholine (POPC) in a 7/3 molar ratio dissolved in decane (50 mg/mL). This lipid solution was painted across a small hole (250 micron) separating two aqueous compartments and readily formed bilayers with capacitances of 200-250 pF. The solution on the side that the membranes were added (cis) contained (mM): 150 KCl, 10 Hepes, 0.01 Ca, 3.7 KOH, pH 7.20. The solution on the other side (trans) contained (mM): 25 KCl, 10 HEPES, 0.01 Ca, 3.7 KOH, pH 7.20. Plasma membrane vesicles purified from bovine aortic smooth muscle (Slaughter et al. 1989, Biochemistry 28, 3995-4002) were added to the cis side until channel incorporation occurred. After channel incorporation, the concentration of KCl on the trans side was increased to 150 mM to prevent further channel incorporation. The orientation of maxi-K channels after insertion into the bilayer was determined from the calcium and voltage sensitivity of the channel. […]
Data was stored on a RACAL STORE 4DS FM tape recorder (Racal Recorders, Vienna, Va.) or on digital video tape using a video casette recorder after digitizing the signal with VR-10 (Instrutech Corp., Belmont N.Y.) PCM video encoder. The signal was also recorded on chart paper with a GOULD 2400S chart recorder (Gould Inc., Cleveland Ohio). […]

[3] = application to the intracellular side, excised inside-out patch
[4] = excised inside-out patch, result in words

T1 sequence (Q28204 whole entry): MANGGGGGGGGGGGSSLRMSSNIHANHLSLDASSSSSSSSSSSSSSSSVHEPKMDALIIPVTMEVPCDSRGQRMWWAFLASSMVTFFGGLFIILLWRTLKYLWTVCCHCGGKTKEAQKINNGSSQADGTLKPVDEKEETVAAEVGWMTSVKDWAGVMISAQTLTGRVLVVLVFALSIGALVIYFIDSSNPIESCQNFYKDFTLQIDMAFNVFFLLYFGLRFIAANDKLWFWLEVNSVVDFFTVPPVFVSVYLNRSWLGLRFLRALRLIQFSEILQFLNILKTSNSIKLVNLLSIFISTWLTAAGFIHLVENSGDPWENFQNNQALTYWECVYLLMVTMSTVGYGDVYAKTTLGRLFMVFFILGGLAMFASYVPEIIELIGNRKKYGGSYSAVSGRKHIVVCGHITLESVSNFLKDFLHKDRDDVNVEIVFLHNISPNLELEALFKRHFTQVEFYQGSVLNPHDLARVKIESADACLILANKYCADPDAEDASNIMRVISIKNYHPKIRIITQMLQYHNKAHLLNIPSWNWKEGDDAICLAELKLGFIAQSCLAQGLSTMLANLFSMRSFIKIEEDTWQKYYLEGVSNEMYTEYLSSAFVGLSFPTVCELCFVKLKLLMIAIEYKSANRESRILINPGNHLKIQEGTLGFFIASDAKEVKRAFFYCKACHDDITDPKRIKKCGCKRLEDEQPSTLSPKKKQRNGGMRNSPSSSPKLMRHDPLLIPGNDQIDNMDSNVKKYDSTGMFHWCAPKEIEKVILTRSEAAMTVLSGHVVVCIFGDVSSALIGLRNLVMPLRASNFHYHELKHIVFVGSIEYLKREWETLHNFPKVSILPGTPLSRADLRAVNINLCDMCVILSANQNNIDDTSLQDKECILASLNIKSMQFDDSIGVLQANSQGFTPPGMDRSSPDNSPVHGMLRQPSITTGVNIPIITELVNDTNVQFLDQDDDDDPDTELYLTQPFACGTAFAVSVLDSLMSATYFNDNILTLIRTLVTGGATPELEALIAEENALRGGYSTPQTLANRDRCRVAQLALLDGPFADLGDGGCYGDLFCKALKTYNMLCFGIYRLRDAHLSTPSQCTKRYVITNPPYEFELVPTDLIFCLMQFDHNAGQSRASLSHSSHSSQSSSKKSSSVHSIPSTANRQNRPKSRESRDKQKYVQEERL
Sequence of large-conductance calcium-activated potassium (maxi-K) channels (Q28204 whole entry): as above
Sequence of large-conductance calcium-activated potassium (maxi-K) channels (Q28067 whole entry partner): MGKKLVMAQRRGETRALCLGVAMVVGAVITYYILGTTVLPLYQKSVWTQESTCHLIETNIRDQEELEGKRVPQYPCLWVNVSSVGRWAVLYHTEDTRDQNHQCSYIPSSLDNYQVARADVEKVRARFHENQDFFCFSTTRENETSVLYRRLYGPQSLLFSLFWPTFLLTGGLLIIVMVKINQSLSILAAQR

CCCCCCCC/C=C\CCCCCCCC(=O)O[C@H]1C[C@]2(C)CC=C(C)CC[C@H]2[C@]1(O)C(C)C [Compound D]
remaining activity at 100 µM ([1]; 1.5 h, pH 7.4, read-out: [^125 I]ChTX binding, % of that under control conditions): 37%
inhibition of [^125 I]ChTX binding ([1]; at 100 μM, tested at 1, 10 and 100 μM): significant inhibition of binding
effect on channel open probability [2, 3]: small decreases in channel open probability

CC1=CC[C@@]2(C)C[C@H](O)[C@@](O)(C(C)C)[C@@H]2CC1 [Compound B, reference compound]
IC50 [1]: 200 nM
inhibition of [^125 I]ChTX binding ([1]; result in words): concentration-dependent inhibition
effect on channel open probability [2, 4]: no clear effect on channel open probability

CCCCCCCC/C=C\CCCCCCCC(=O)OCC1=CC[C@@]2(C)C[C@H](O)[C@@](O)(C(C)C)[C@@H]2CC1 [Compound A]
increase in channel open probability (maxi-K channels; inside face of the channel): 1.4 fold
effect on channel open probability (maxi-K channels; outside face of the channel): did not increase channel open probability
IC50 [1]: 360 nM and ~360 nM
inhibition of [^125 I]ChTX binding ([1]; result in words): concentration-dependent inhibition
time over which increase in channel open probability developed ([2]; excised inside-out patch): 5 to 10 min
effect on channel open probability [2, 4]: clear increases in channel open probability
reversal of increase in channel open probability on washout ([2]; long (20-60 minutes) washout): slowly reversed after long (20-60 minutes) washout

CC(C)[C@@]1(O)[C@@H]2CCC(CO)=CC[C@@]2(C)C[C@@H]1O [Compound E]
effect on toxin binding ([1]; concentrations from 1 nM to 100 μM): did not produce any significant effect on toxin binding
effect on channel open probability [2, 3]: no observable effect on channel open probability

CCCCC/C=C\C/C=C\CCCCCCCC(=O)O[C@H]1C[C@]2(C)CC=C(C)CC[C@H]2[C@]1(O)C(C)C [Compound C]
effect on [^125 I]ChTX binding ([1]; concentrations up to 100 μM, tested at 1, 10 and 100 μM): no effect on binding
effect on channel open probability [2, 3]: small decreases in channel open probability
